Measurements taken from patent US9309242B2, “Substituted pyrido[2,3-b]pyrazines as FGFR kinase inhibitors” (priority 2011, dated 2016).
pIC50: −log10 of the molar value.

Key:
[1] = biological target: T1, Ba/F3-FGFR1-transfected cells (Homo sapiens, UniProt P11362); experiment: Ba/F3-FGFR1 (minus IL3) cellular proliferation assay, Alamar Blue; assay type: cell-based
T1 construct: BAF3-FGFR1 (MIN IL3) pIC50; other: minus IL3
How it was run: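 Ba/F3-FGFR1 cells (20000 per well) were exposed to compound for 24 h at 37 °C in RPMI-1640 with 10% FBS. Alamar Blue (resazurin) was then added for 4 h, and fluorescence was read at ex 540/em 590 nm.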

[2] = biological target: FGFR2 (h) (Homo sapiens, UniProt P21802); experiment: FGFR2 (enzymatic assay), TR-FRET; assay type: biochemical; conditions: enzymatic assay; read-out: FGFR 2 pIC50 (converted)
FGFR2 (h), sequence (P21802 22-821): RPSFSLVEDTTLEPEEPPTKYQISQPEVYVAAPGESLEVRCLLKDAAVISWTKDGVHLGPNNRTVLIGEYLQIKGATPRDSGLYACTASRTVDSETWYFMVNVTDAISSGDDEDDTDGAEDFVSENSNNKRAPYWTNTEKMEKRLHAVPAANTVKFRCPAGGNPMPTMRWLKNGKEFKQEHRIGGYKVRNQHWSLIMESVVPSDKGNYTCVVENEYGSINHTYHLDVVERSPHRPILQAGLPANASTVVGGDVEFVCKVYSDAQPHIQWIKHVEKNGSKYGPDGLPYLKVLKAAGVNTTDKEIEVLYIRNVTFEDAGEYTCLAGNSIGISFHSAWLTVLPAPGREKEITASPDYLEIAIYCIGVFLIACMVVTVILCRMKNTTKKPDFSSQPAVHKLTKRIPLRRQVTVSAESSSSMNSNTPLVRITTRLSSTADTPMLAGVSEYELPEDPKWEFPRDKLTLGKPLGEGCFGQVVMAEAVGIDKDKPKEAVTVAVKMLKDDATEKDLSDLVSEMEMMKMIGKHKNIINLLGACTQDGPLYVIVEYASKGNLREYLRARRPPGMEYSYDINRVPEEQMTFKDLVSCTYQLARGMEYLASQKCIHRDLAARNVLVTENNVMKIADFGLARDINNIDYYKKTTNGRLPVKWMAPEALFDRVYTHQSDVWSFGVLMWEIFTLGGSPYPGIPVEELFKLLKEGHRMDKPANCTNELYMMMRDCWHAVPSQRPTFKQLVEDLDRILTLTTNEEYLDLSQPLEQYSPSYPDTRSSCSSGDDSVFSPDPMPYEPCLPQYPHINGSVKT
How it was run: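 Human FGFR2 (150 ng/ml) was incubated with 500 nM Btn-Flt3 substrate and 0.4 μM ATP in 50 mM HEPES pH 7.5, 6 mM MnCl2, 1 mM DTT, 0.1 mM Na3VO4, 0.01% Triton-X-100. Compound was present at 1% DMSO final.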

[3] = biological target: FGFR1 (h) (Homo sapiens, UniProt P11362); experiment: FGFR1 (enzymatic assay), TR-FRET; assay type: biochemical; conditions: read-out: FGFR 1 pIC50 (converted)
FGFR1 (h), sequence (P11362 22-822): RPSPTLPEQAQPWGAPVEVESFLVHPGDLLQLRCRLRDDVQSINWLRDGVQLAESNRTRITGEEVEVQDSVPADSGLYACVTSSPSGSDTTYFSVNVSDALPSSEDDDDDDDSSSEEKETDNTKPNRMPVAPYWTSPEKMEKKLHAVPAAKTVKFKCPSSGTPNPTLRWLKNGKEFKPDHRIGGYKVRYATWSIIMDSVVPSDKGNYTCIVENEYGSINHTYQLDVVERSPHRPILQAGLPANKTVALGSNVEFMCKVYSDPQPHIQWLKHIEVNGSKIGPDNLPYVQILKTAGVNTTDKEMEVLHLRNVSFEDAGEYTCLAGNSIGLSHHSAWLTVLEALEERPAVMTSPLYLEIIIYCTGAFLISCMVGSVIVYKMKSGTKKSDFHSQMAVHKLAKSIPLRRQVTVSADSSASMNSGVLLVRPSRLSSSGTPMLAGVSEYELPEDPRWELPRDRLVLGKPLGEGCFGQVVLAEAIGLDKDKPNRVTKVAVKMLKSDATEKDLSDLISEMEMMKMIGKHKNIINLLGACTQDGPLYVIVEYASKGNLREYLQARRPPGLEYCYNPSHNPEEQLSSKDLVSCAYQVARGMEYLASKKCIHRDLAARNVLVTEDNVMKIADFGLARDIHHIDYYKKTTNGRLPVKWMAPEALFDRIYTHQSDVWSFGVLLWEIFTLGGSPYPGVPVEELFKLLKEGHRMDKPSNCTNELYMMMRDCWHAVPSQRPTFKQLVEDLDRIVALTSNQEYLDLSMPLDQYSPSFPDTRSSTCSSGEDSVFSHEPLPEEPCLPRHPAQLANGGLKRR

[4] = biological target: FGFR4 (h) (Homo sapiens, UniProt P22455); experiment: FGFR4 (enzymatic assay), TR-FRET; assay type: biochemical; conditions: FGFR 4 pIC50, enzymatic assay
FGFR4 (h), sequence (P22455 22-802): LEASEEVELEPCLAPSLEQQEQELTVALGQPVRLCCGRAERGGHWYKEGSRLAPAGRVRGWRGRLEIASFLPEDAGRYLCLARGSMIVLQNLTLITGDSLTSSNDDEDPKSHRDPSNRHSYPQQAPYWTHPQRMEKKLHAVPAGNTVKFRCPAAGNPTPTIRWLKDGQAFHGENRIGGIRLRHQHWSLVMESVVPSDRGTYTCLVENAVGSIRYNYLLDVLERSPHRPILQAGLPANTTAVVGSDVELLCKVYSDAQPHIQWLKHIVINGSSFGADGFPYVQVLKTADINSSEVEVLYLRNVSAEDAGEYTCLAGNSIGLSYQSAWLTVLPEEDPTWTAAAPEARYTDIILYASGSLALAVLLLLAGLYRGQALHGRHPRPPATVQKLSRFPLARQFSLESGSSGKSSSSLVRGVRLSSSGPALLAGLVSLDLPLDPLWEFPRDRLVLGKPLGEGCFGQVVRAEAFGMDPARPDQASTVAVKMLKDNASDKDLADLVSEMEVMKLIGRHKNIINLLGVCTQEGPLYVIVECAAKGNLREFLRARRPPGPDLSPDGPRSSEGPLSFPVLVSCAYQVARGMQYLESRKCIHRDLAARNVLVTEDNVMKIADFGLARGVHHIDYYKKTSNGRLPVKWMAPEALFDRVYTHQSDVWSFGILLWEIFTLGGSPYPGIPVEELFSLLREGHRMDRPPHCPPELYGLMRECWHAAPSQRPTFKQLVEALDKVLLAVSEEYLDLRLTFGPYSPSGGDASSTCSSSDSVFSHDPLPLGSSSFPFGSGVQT

[5] = system: Ba/F3-KDR-transfected cells; experiment: Ba/F3-KDR (plus IL3) cellular proliferation assay, counterscreen with 10 ng/ml murine IL3; assay type: cell-based; conditions: plus IL3 (10 ng/ml murine IL3, counterscreen); read-out: BAF3-KDR (PLUS IL3) pIC50 (converted)
How it was run: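 20000 cells/well, RPMI-1640 + 10% FBS + 2 mM L-Gln; compound 24 h, 37° C/5% CO2; Alamar Blue 4 h; RFU ex540/em590.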

[6] = biological target: FGFR3 (h) (Homo sapiens, UniProt P22607); experiment: FGFR3 (enzymatic assay), TR-FRET; assay type: biochemical; conditions: read-out: FGFR 3 pIC50 (converted)
FGFR3 (h), sequence (P22607 23-806): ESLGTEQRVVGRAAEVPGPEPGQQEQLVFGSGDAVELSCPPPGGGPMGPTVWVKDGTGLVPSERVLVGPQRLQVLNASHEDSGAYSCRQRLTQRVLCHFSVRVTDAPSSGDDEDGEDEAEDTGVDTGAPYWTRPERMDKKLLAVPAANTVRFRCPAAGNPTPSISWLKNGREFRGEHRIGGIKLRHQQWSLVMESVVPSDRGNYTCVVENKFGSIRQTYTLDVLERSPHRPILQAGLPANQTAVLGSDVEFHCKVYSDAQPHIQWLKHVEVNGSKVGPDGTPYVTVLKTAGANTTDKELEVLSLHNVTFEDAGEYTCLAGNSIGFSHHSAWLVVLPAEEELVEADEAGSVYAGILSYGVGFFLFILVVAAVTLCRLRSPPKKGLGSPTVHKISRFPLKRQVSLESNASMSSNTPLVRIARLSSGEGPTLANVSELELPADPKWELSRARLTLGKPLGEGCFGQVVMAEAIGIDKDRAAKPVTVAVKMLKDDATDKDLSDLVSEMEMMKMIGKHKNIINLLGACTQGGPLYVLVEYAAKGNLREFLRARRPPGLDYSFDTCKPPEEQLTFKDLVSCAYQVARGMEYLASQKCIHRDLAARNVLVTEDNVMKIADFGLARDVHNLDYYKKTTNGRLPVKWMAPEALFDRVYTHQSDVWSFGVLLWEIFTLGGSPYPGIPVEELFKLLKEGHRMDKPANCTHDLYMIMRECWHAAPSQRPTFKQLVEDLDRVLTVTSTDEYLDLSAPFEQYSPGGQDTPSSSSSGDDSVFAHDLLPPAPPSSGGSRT
Excerpt: Time-Resolved Fluorescence Resonance Energy Transfer (TR-FRET) signal (ex340 nm.

T1 sequence (P11362 whole entry, change not shown): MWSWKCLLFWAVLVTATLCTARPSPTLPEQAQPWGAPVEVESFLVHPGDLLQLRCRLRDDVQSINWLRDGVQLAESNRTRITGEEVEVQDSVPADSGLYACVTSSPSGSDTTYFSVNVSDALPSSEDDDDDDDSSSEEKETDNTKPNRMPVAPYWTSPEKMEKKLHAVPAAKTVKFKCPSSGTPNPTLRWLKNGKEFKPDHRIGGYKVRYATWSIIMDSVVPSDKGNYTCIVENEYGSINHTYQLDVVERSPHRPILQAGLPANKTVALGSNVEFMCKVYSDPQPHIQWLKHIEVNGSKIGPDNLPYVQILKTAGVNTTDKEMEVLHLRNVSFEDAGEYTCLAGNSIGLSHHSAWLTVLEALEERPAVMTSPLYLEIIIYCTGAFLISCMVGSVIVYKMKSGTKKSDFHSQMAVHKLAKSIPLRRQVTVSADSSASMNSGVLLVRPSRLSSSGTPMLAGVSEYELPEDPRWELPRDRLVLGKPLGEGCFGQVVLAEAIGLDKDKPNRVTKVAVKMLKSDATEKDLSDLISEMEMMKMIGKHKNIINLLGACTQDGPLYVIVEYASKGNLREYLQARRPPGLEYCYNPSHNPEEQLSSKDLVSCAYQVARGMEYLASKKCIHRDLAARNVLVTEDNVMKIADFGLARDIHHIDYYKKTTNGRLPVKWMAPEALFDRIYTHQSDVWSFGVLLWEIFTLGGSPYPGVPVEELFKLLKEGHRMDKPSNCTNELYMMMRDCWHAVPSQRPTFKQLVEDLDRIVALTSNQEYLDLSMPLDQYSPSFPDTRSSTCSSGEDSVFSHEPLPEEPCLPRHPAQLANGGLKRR

Row | Structure (SMILES) | BAF3-FGFR1 (MIN IL3) pIC50 [1] | melting point | IC50 [2] | IC50 [3] | pIC50 [4] | IC50 [5] | IC50 [6]
1 | COc1cc(OC)c(F)c(N(CCNC2COC2)c2ccc3ncc(-c4cnn(C)c4)nc3n2)c1F (single isomer, unassigned) [Compound 162] | 7.88 | 183 °C | 2.19 nM | 1.17 nM | 8.59 | > 10000 nM | 1.41 nM
2 | COc1cc(/N=c2\ccc3ncc(-c4cnn(C)c4)nc3n2CC2CCOC2)c(F)c(OC)c1 (single isomer, unassigned) [Compound 169] | 7.68 | 80 °C | 1.62 nM | ~0.933 nM | 9.01 | > 10000 nM | 1.02 nM
3 | COc1cc(/N=c2\ccc3ncc(-c4cnn(CC(C)(C)O)c4)nc3n2CC(C)(C)O)c(F)c(OC)c1 (single isomer, unassigned) [Compound 207] | 7.45 | 154 °C | 2.51 nM | 0.813 nM | 8.50 | > 10000 nM | 1.17 nM
4 | COc1cc(OC)c(F)c(N(CC2CCC(=O)N2CCO)c2ccc3ncc(-c4cnn(C)c4)nc3n2)c1 (single isomer, unassigned) [Compound 218] | 7.51 | 130 °C | 5.5 nM | 3.24 nM | 8.41 | > 10000 nM | 4.17 nM
5 | COc1cc(OC)c(F)c(/N=c2\ccc3ncc(-c4cnn(C)c4)nc3n2CC2CCOC2)c1F (stereo not drawn) [Compound 154] | 7.71 | 226 °C | 1.05 nM | 0.661 nM | 9.11 | > 10000 nM | 0.676 nM
6 | COc1cc(OC)c(F)c(/N=c2\ccc3ncc(-c4cnn(C)c4)nc3n2CCN(C2COC2)C2COC2)c1F [Compound 164] | 8.01 | 218 °C | 1.82 nM | 1.02 nM | 9.01 | > 10000 nM | 0.933 nM
7 | COc1cc(OC)c(F)c(N(CC#N)c2ccc3ncc(-c4cnn(C)c4)nc3n2)c1F [Compound 173] | 8.00 | 250 °C | 1.1 nM | ~0.977 nM | 9.14 | > 10000 nM | 0.437 nM
8 | COc1cc(OC)cc(N(Cc2noc(C)n2)c2ccc3ncc(-c4cnn(C)c4)nc3n2)c1 [Compound 186] | 7.03 | 177 °C | 2.57 nM | 2.45 nM | 7.92 | > 10000 nM | 2.69 nM
9 | COc1cc(OC)cc(N(Cc2nnc(N)o2)c2ccc3ncc(-c4cnn(C)c4)nc3n2)c1 [Compound 188] | 6.78 | 246 °C | 1.35 nM | 1.66 nM | 8.79 | > 10000 nM | 0.933 nM
10 | COc1cc(OC)c(F)c(N(CC2CCC(=O)N2CCO)c2ccc3ncc(-c4cnn(C)c4)nc3n2)c1 (stereo not drawn) [Compound 194] | 6.30 | 102 °C | 12 nM | 11.2 nM | 7.35 | > 10000 nM | 8.51 nM
11 | COc1cc(OC)cc(N(Cc2nnco2)c2ccc3ncc(-c4cnn(C)c4)nc3n2)c1 [Compound 217] | 6.59 | 240 °C | 5.89 nM | 7.94 nM | 7.63 | > 10000 nM | 3.89 nM
12 | COc1cc(OC)c(F)c(N(Cc2nc(OC)cc(OC)n2)c2ccc3ncc(-c4cnn(C)c4)nc3n2)c1 [Compound 220] | 6.32 |  | 6.92 nM | 4.17 nM | 7.53 | > 10000 nM | 9.33 nM
13 | COc1cc(OC)c(F)c(N(CCNC2COC2)c2ccc3ncc(-c4cnn(C)c4)nc3n2)c1 [Compound 221] | 7.53 |  | 3.09 nM | 1.51 nM | 8.18 | > 10000 nM | 0.891 nM
14 | COc1cc(OC)c(F)c(N(CCN(C2COC2)C2COC2)c2ccc3ncc(-c4cnn(C)c4)nc3n2)c1 [Compound 222] | 7.12 |  | 5.25 nM | 2.24 nM | 7.81 | > 10000 nM | 3.89 nM
15 | CCn1cc(-c2cnc3ccc(N(Cc4ncc[nH]4)c4cc(OC)cc(OC)c4F)nc3n2)cn1 [Compound 223] | 8.85 |  | 1.58 nM | 0.55 nM | 8.89 | > 10000 nM | 1.23 nM
16 | COc1cc(OC)c(F)c(N(CC(=O)c2cnn(C)c2)c2ccc3ncc(-c4cnn(C)c4)nc3n2)c1 [Compound 225] | 6.41 |  | ~7.08 nM | 6.61 nM | 7.44 | > 10000 nM | 7.76 nM
17 | COc1cc(OC)cc(N(Cc2ncc[nH]2)c2ccc3ncc(-c4cnn(C5CCNCC5)c4)nc3n2)c1 [Compound 227] | 7.73 |  | 1.45 nM | 0.562 nM | 8.74 | > 10000 nM | 0.891 nM
18 | COc1cc(OC)cc(N(Cc2n[nH]c(=O)o2)c2ccc3ncc(-c4cnn(C)c4)nc3n2)c1 [Compound 229] | 5.97 | 232 °C | 5.62 nM | 4.9 nM | 7.65 | > 10000 nM | 4.07 nM
19 | COc1cc(OC)c(F)c(N(CC(=O)NCCO)c2ccc3ncc(-c4cnn(C)c4)nc3n2)c1 [Compound 230] | 6.09 | 258 °C | 7.41 nM | 7.59 nM | 7.37 | > 10000 nM | 7.94 nM
20 | COc1cc(OC)c(F)c(N(CC(=O)O)c2ccc3ncc(-c4cnn(C)c4)nc3n2)c1 [Compound 231] | 5.27 | > 260 °C | 6.31 nM | 4.79 nM | 7.75 | > 10000 nM | 3.98 nM
21 | COc1cc(OC)c(F)c(N(Cc2nc(CO)c[nH]2)c2ccc3ncc(-c4cnn(C)c4)nc3n2)c1 [Compound 232] | 7.45 |  | ~2.75 nM | 0.813 nM | 8.73 | > 10000 nM | 1.29 nM
22 | COc1cc(OC)c(F)c(N(CCO)c2ccc3ncc(-c4cnn(CCO)c4)nc3n2)c1 [Compound 233] | 7.49 | 194 °C | 1.7 nM | 0.759 nM | 8.54 | > 10000 nM | 0.776 nM
23 | COc1cc(OC)c(F)c(N(Cc2nc(Br)c[nH]2)c2ccc3ncc(-c4cnn(C)c4)nc3n2)c1 [Compound 238] | ~8.32 |  | 2.14 nM | 0.479 nM | 8.95 | > 10000 nM | 1.17 nM
24 | COc1cc(OC)c(F)c(N(Cc2ncc[nH]2)c2ccc3ncc(-c4cnn(CC(C)(C)O)c4)nc3n2)c1 [Compound 240] | 8.57 |  | 2.57 nM | 0.912 nM | 8.72 | > 10000 nM | 1.82 nM
25 | COc1cc(OC)c(F)c(N(CCNC(C)=O)c2ccc3ncc(-c4cnn(C)c4)nc3n2)c1 [Compound 242] | 7.35 |  | 2.95 nM | 1.17 nM | 8.65 | > 10000 nM | 1.86 nM
26 | COc1cc(/N=c2\ccc3ncc(-c4cnn(C)c4)nc3n2CC2CCC(=O)N2)cc(OC)c1 (stereo not drawn) [Compound 248] | 6.70 |  | 3.63 nM | 5.13 nM | 8.09 | > 10000 nM | 1.82 nM
27 | COc1cc(OC)c(F)c(N(Cc2n[nH]c(=O)o2)c2ccc3ncc(-c4cnn(C)c4)nc3n2)c1 [Compound 284] | 6.37 |  | 2.14 nM | 1.58 nM | 8.26 | > 10000 nM | 1.05 nM
